The results in this text go back to PubChem BioAssay (NCI).

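48-hour exposure; five concentrations; linearly interpolated endpoints. At the GI50, growth is halved. TGI: concentration producing complete growth inhibition.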

Assay in all cases: growth of human tumour cells (NCI), 48 h
Assay [1] relates to SF-268 CNS.
Assay [2] has as its system LOX IMVI melanoma.
In assay [3] the test system is SK-MEL-5 melanoma.
The test system of assay [4] is SR leukemia.
For assay [5], the system named is HT29 colon.
In assay [6] the test system is U251 CNS.
Assay [7] deals with ACHN renal.
Assay [8] concerns OVCAR-8 ovarian.
In assay [9] the test system is NCI-H226 lung.
Assay [10] deals with IGROV1 ovarian.

Take `COc1ccc(/C=C/C(=O)c2ccc(Nc3nc(Nc4ccc(F)cc4)nc(Nc4ccc(F)cc4)n3)cc2)cc1`: the GI50 is 22.5 µM in assay [1]; 21.7 µM in [2]; 3.51 µM in [3]; 4.66 µM in assay [4]; 18.1 µM in [5]; 16.7 µM in [6]. Also, the GI50 in assay [7] is 30.4 µM; in [8], 8.49 µM; in [9], 19.8 µM. Moreover, the TGI in [1] is 94.6 µM; in assay [2], 67.7 µM; in [3] it was 18.5 µM; in assay [4] it was 51.6 µM; in assay [5] it was above 100 µM; in assay [6] it was 56.2 µM. Besides, the TGI in [7] was above 100 µM; in [8], 30.1 µM; in assay [9] it was 65.7 µM.

For `Cc1cc2nc(-c3ccc(O)c(O)c3)n(Cc3ccc(O)c(O)c3)c2cc1C`, the GI50 is 18.5 µM in assay [1]; 13.1 µM in [2]; 17.5 µM in assay [3]; 4.18 µM in assay [4]; 45.1 µM in assay [5]; 5 µM in assay [6]. In addition, the GI50 in [10] is 18.1 µM; in assay [7] it was 15.3 µM; in assay [8] it was 26.4 µM; in [9], 18.7 µM. In addition, the TGI was 84.3 µM in assay [1]; 28.4 µM in [2]; 39.9 µM in assay [3]; 19.5 µM in assay [4]; above 100 µM in [5]; above 100 µM in [6]. In addition, the TGI in assay [10] was above 100 µM; in assay [7], 59.6 µM; in assay [8] it was above 100 µM; in assay [9] it was 35 µM.

Consider `NC1=Nc2ccccc2Sc2ccccc21`, for which the TGI in [1], in assay [2], in [3], in assay [4], in [5] and in assay [6] was above 100 µM in each case. Moreover, the TGI in assay [10], in [7], in assay [8] and in assay [9] was above 100 µM throughout.

For `CN1CCN(c2nc3cc(F)ccc3n3cccc23)CC1`, the TGI was above 100 µM in [1]; 31.4 µM in assay [2]; 38 µM in [3]; above 100 µM in assay [4]; 87.6 µM in assay [5]; above 100 µM in assay [6]. Moreover, the TGI in assay [10] was 87.6 µM; in [7], above 100 µM; in [8] it was above 100 µM; in assay [9], 54.1 µM.

In the case of `Cc1ccc([N+]2=NC(c3ccccc3)=NN(c3ccccc3)C2)cc1`, the TGI was above 100 µM in [1]; above 100 µM in [2]; 73.6 µM in [3]; above 100 µM in [4]; above 100 µM in [5]; above 100 µM in assay [6]. Moreover, the TGI in assay [10], in assay [7], in assay [8] and in assay [9] was above 100 µM each time.

For the compound `Cc1nc2sc(C(=O)Nc3ccccc3)c(N)c2cc1C(=O)c1ccccc1`, the GI50 in [1] is 3.5 µM; in [2], 3 µM; in assay [3], 1.97 µM; in [4], 0.923 µM; in assay [5], 1.75 µM; in [6], 2.09 µM. The GI50 was 4.11 µM in assay [10], 4.52 µM in [7], 3.86 µM in assay [8] and 16.9 µM in [9]. The TGI in [1] was above 50 µM; in assay [2], above 50 µM; in assay [3], 8.13 µM; in assay [4], 18.1 µM; in assay [5] it was 9.54 µM; in [6], above 50 µM. The TGI in assay [10], in [7], in assay [8] and in assay [9] was above 50 µM in each case.

As for `CCOc1ccccc1N=Cc1c2ccccc2cc2ccccc12`, the TGI in [1] was 54.5 µM; in assay [2] it was 38.2 µM; in [3], above 83.8 µM; in assay [4], 61.7 µM; in assay [5], 54.2 µM; in assay [6], above 63.9 µM. For the same compound, the TGI in assay [10] was 49.9 µM; in assay [7], above 93.3 µM; in assay [8], 70 µM; in [9], above 100 µM.

Consider `N=C1C=C(N)C(=O)c2ccccc21`, for which the GI50 in assay [1] was 0.199 µM; in assay [2], 0.17 µM; in [3] it was 0.174 µM; in assay [4], 0.256 µM; in assay [5] it was 0.386 µM; in [6], 0.183 µM. Also, the GI50 in assay [10] was 0.203 µM; in [7] it was 0.182 µM; in [8] it was 0.248 µM; in assay [9], 0.19 µM. Moreover, the TGI amounted to 0.451 µM in assay [1]; 0.421 µM in assay [2]; 0.319 µM in assay [3]; 0.667 µM in [4]; 1.82 µM in assay [5]; 0.339 µM in [6]. In addition, the TGI in [10] was found to be 0.42 µM; in assay [7] it was 0.369 µM; in assay [8], 0.661 µM; in [9] it was 0.394 µM.

Consider `CCOC(=O)N(O)c1ccc(/C=C/c2ccccc2)cc1`, for which the GI50 was 18.2 µM in assay [1]; 7.22 µM in [2]; 3.85 µM in assay [3]; 4.1 µM in [4]; 8.3 µM in assay [5]; 4.72 µM in [6]. For the same compound, the GI50 in assay [10] is 0.319 µM; in assay [7], 8.38 µM; in [8], 10.9 µM; in assay [9], 0.128 µM. In addition, the TGI in assay [1] is above 100 µM; in assay [2], 20.6 µM; in [3], 14.5 µM; in assay [4] it was 28.2 µM; in [5], 31.5 µM; in assay [6], 29.2 µM. The TGI in assay [10] is 3.21 µM; in assay [7], above 93.7 µM; in assay [8], above 100 µM; in assay [9], 0.446 µM.

Regarding `CCN(CC)CCNc1ccc([N+](=O)[O-])c2nc3ccc(OC)cc3c(N)c12`, the TGI worked out at 3.63 µM in assay [1]; 0.344 µM in assay [2]; 2.22 µM in assay [3]; 0.972 µM in [4]; 1.42 µM in assay [5]; 3.06 µM in [6]. The TGI was 1.21 µM in [10], 2.89 µM in assay [7], 3.45 µM in assay [8] and 4.41 µM in assay [9].

`CN(C)CCOc1ccc2c(c1)C(=O)/C(=C\c1ncc([N+](=O)[O-])n1C)C2`: the GI50 in assay [1] is 0.489 µM; in assay [2], 0.331 µM; in assay [3], 0.179 µM; in [4], 0.416 µM; in [5], 0.346 µM; in [6], 1.12 µM. In addition, the GI50 in assay [10] was 0.147 µM; in [7], 0.298 µM; in assay [8] it was 0.95 µM; in [9], 1.31 µM. In addition, the TGI in [1] stood at 3.11 µM; in assay [2] it was 1.85 µM; in assay [3], 0.402 µM; in assay [4] it was 0.96 µM; in assay [5], 2.25 µM; in assay [6], 4.75 µM. Also, the TGI in assay [10] was 0.378 µM; in assay [7] it was 2.37 µM; in [8], above 20.5 µM; in assay [9], 3.7 µM.

With `Nc1ccn(C2CC3OCC3O2)c(=O)n1` (configuration not stated), the TGI in [1], in assay [2], in assay [3], in assay [4], in [5] and in [6] was above 100 µM in each case. For the same compound, the TGI in assay [10], in assay [7], in [8] and in assay [9] was above 100 µM in each case.

As for `O=C1C=CC(=O)c2c(O)c(N(CCCl)CCCl)c(Cl)c(O)c21`, the TGI in [1] is above 8.4 µM; in [2] it was 6.25 µM; in assay [3] it was 7.41 µM; in assay [4] it was above 10 µM; in [5], above 8.53 µM; in assay [6], above 9.09 µM. The TGI in assay [10] is above 7.99 µM; in [7] it was 5.6 µM; in assay [8], 6.9 µM; in assay [9], above 10 µM.

With `CN1C/C(=C\c2ccc(C(=O)O)cc2)C(=O)/C(=C/c2ccc(C(=O)O)cc2)C1`, the TGI in assay [1], in [2], in [3], in assay [4], in assay [5] and in assay [6] was above 100 µM throughout. Further, the TGI in [10], in assay [7], in assay [8] and in assay [9] was above 100 µM throughout.

`Cc1c2ccccc2c(C)n2c1nc1cc(Cl)c(Cl)cc12`: the GI50 is above 100 µM in assay [1]; 25.2 µM in assay [2]; 25.7 µM in assay [3]; 12.9 µM in assay [4]; 31 µM in [5]; 34.6 µM in assay [6]. For the same compound, the GI50 is 8.62 µM in assay [10], 26 µM in assay [7], above 100 µM in assay [8] and above 100 µM in assay [9]. The TGI in [1] is above 100 µM; in assay [2] it was above 100 µM; in assay [3], above 100 µM; in assay [4] it was 44.7 µM; in [5] it was above 100 µM; in [6], above 100 µM. Also, the TGI in [10], in [7], in assay [8] and in assay [9] was above 100 µM each time.

For the compound `CSc1nc2ccc(C)cc2cc1/C=C1/C=C(c2ccccc2)NC1=O`, the GI50 in assay [1] was 3.16 µM; in assay [2] it was 6.33 µM; in assay [3] it was 21.3 µM; in assay [4], 0.598 µM; in [5] it was 3.44 µM; in [6] it was 0.602 µM. The GI50 in assay [10] is 2.71 µM; in assay [7], 1.04 µM; in assay [8], 3.6 µM; in [9], 7.3 µM. Also, the TGI in [1] is 48 µM; in [2] it was 33.2 µM; in [3], above 100 µM; in [4], above 100 µM; in assay [5] it was above 100 µM; in assay [6], 3.68 µM. The TGI was 24.1 µM in assay [10], 5.54 µM in assay [7], 23.2 µM in assay [8] and above 100 µM in [9].

Take `NC1=C(O)C(=O)C(c2c[nH]c3ccc(OCc4ccccc4)cc23)O1` (configuration not stated): the TGI in assay [1], in assay [2], in assay [3], in assay [4], in [5] and in assay [6] was above 100 µM each time. The TGI in assay [10], in assay [7], in assay [8] and in assay [9] was above 100 µM each time.

`COC(=O)c1cc(C)[nH]c2c(C)cc3nc4ccccc4c3c12`: the GI50 in [1] was 11 µM; in [2], 5.38 µM; in assay [3] it was 5.97 µM; in assay [4], 6.13 µM; in assay [5] it was 3.11 µM; in assay [6], 10.7 µM. For the same compound, the GI50 in assay [10] is 6.01 µM; in assay [7], 11.6 µM; in assay [8], 6.35 µM; in [9] it was 14 µM. Also, the TGI in assay [1] worked out at 23.8 µM; in assay [2] it was 32.2 µM; in assay [3], 19.2 µM; in [4], 58.2 µM; in [5], 13.5 µM; in assay [6] it was 23.9 µM. Also, the TGI in assay [10] was 23.9 µM; in assay [7], 25.4 µM; in assay [8], 19 µM; in [9], 28.9 µM.

For `C[C@H]1CCC2C(OC(=O)[C@@H]2CN(C)C)[C@]2(C)C(=O)C=CC12O` (some centres not stated), the TGI was 28.6 µM in assay [1]; 17.8 µM in [2]; 20.3 µM in assay [3]; 11.2 µM in assay [4]; 16 µM in assay [5]; 38.8 µM in assay [6]. For the same compound, the TGI in assay [10] is 42.5 µM; in assay [7], 5.74 µM; in assay [9] it was above 38.1 µM.
